Assay results reported in US20250270191A1, “QUINOLONE BCL6 BIFUNCTIONAL DEGRADERS” (Treeline Biosciences, Inc., priority 2022, published 2025).

Molecular target: T1, Human BCL6 protein (N-terminal HiBiT tagged BCL6 in HT1080 cells) (Homo sapiens, UniProt P41182+Q96SW2)
T1 construct: Human BCL6 protein coding open reading frame; expressed in transfected cells; host or cells: HT1080 (ATCC CCL-121), stably transduced with lentivirus pLV-UBC-N-HiBiT-BCL6-PGK-puro
Assay: HiBiT based BCL6 degradation assay
Assay type: cell-based
Details: HT1080 cells expressing N-terminal HiBiT tagged BCL6; 5 hours incubation; BCL6 degradation normalized with DMSO control
Outline: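 HT1080 cells stably expressing N-terminal HiBiT-BCL6 were treated with compound dilution series for 5 h at 37° C. in RPMI 1640 with 10% FBS. HiBiT lytic luminescence read after 15 min; degradation normalized to DMSO, with curves fitted by four-parameter logistic model.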

| SMILES | Ymin (5 hr) |
| --- | --- |
| CNC(=O)COc1cc2cc(Nc3nc(N4CCN(C[C@H]5CCN(c6ccc7c(C8CCC(=O)NC8=O)nn(C)c7c6)C5)CC4)ncc3Cl)ccc2n(C)c1=O (stereo partly drawn) [Compound 306a, 2-((6-((5-chloro-2-(4-(((3R)-1-(3-(2,6-dioxopiperidin-3-yl)-1-methyl-1H-indazol-6-yl)pyrrolidin-3-yl)methyl)piperazin-1-yl)pyrimidin-4-yl)amino)-1-methyl-2-oxo-1,2-dihydroquinolin-3-yl)oxy)-N-methylacetamide] | +++ (25% < Ymin ≤ 50%) |
| CNC(=O)COc1cc2cc(Nc3nc(N4CCN(C[C@@H]5CCN(c6ccc7c(C8CCC(=O)NC8=O)nn(C)c7c6)C5)CC4)ncc3Cl)ccc2n(C)c1=O (stereo partly drawn) [Compound 306b, 2-((6-((5-chloro-2-(4-(((3S)-1-(3-(2,6-dioxopiperidin-3-yl)-1-methyl-1H-indazol-6-yl)pyrrolidin-3-yl)methyl)piperazin-1-yl)pyrimidin-4-yl)amino)-1-methyl-2-oxo-1,2-dihydroquinolin-3-yl)oxy)-N-methylacetamide] | ++++ (Ymin ≤ 25%) |
| CNC(=O)COc1cc2cc(Nc3nc(N4CCN(CC5CCN(c6cccc7c(C8CCC(=O)NC8=O)nn(C)c67)CC5)[C@H](C)C4)ncc3Cl)ccc2n(C)c1=O (stereo partly drawn) [Compound 308a, 2-((6-((5-chloro-2-((3R)-4-((1-(3-(2,6-dioxopiperidin-3-yl)-1-methyl-1H-indazol-7-yl)piperidin-4-yl)methyl)-3-methylpiperazin-1-yl)pyrimidin-4-yl)amino)-1-methyl-2-oxo-1,2-dihydroquinolin-3-yl)oxy)-N-methylacetamide] | ++++ (Ymin ≤ 25%) |
| CNC(=O)COc1cc2cc(Nc3nc(N4CCN(CC5CCN(c6cccc7c(C8CCC(=O)NC8=O)nn(C)c67)CC5)[C@@H](C)C4)ncc3Cl)ccc2n(C)c1=O (stereo partly drawn) [Compound 308b, 2-((6-((5-chloro-2-((3S)-4-((1-(3-(2,6-dioxopiperidin-3-yl)-1-methyl-1H-indazol-7-yl)piperidin-4-yl)methyl)-3-methylpiperazin-1-yl)pyrimidin-4-yl)amino)-1-methyl-2-oxo-1,2-dihydroquinolin-3-yl)oxy)-N-methylacetamide] | ++++ (Ymin ≤ 25%) |
| CNC(=O)COc1cc2cc(Nc3nc(N4CCN(CC5CCN(c6ccc7c(C8CCC(=O)NC8=O)nn(C)c7c6)CC5)[C@H](C)C4)ncc3Cl)ccc2n(C)c1=O (stereo partly drawn) [Compound 309a, 2-((6-((5-chloro-2-((3R)-4-((1-(3-(2,6-dioxopiperidin-3-yl)-1-methyl-1H-indazol-6-yl)piperidin-4-yl)methyl)-3-methylpiperazin-1-yl)pyrimidin-4-yl)amino)-1-methyl-2-oxo-1,2-dihydroquinolin-3-yl)oxy)-N-methylacetamide] | +++ (25% < Ymin ≤ 50%) |
| CNC(=O)COc1cc2cc(Nc3nc(N4CCN(CC5CCN(c6ccc7c(C8CCC(=O)NC8=O)nn(C)c7c6)CC5)[C@@H](C)C4)ncc3Cl)ccc2n(C)c1=O (stereo partly drawn) [Compound 309b, 2-((6-((5-chloro-2-((3S)-4-((1-(3-(2,6-dioxopiperidin-3-yl)-1-methyl-1H-indazol-6-yl)piperidin-4-yl)methyl)-3-methylpiperazin-1-yl)pyrimidin-4-yl)amino)-1-methyl-2-oxo-1,2-dihydroquinolin-3-yl)oxy)-N-methylacetamide] | +++ (25% < Ymin ≤ 50%) |
| CNC(=O)COc1cc2cc(Nc3nc(N4CCC(CC5CN(c6cccc7c(C8CCC(=O)NC8=O)nn(C)c67)C5)CC4)ncc3Cl)ccc2n(C)c1=O (stereo not drawn) [Compound 310, 2-((6-((5-chloro-2-(4-((1-(3-(2,6-dioxopiperidin-3-yl)-1-methyl-1H-indazol-7-yl)azetidin-3-yl)methyl)piperidin-1-yl)pyrimidin-4-yl)amino)-1-methyl-2-oxo-1,2-dihydroquinolin-3-yl)oxy)-N-methylacetamide] | +++ (25% < Ymin ≤ 50%) |
| CNC(=O)COc1cc2cc(Nc3nc(N4CCN(CC5CCC6(CC5)CN(c5cccc7c(C8CCC(=O)NC8=O)nn(C)c57)C6)CC4)ncc3Cl)ccc2n(C(C)C)c1=O (stereo not drawn) [Compound 311, 2-((6-((5-chloro-2-(4-((2-(3-(2,6-dioxopiperidin-3-yl)-1-methyl-1H-indazol-7-yl)-2-azaspiro[3.5]nonan-7-yl)methyl)piperazin-1-yl)pyrimidin-4-yl)amino)-1-isopropyl-2-oxo-1,2-dihydroquinolin-3-yl)oxy)-N-methylacetamide] | ++ (50% < Ymin ≤ 70%) |
| CNC(=O)COc1cc2cc(Nc3nc(N4CCC[C@H](CN(C)c5ccc6c(C7CCC(=O)NC7=O)nn(C)c6c5)C4)ncc3Cl)ccc2n(C)c1=O (stereo partly drawn) [Compound 312a, 2-((6-((5-chloro-2-((3R)-3-(((3-(2,6-dioxopiperidin-3-yl)-1-methyl-1H-indazol-6-yl)(methyl)amino)methyl)piperidin-1-yl)pyrimidin-4-yl)amino)-1-methyl-2-oxo-1,2-dihydroquinolin-3-yl)oxy)-N-methylacetamide] | ++ (50% < Ymin ≤ 70%) |
| CNC(=O)COc1cc2cc(Nc3nc(N4CC[C@H](COc5ccc6c(C7CCC(=O)NC7=O)nn(C)c6c5)C4)ncc3Cl)ccc2n(C)c1=O (stereo partly drawn) [Compound 313a, 2-((6-((5-chloro-2-((3S)-3-(((3-(2,6-dioxopiperidin-3-yl)-1-methyl-1H-indazol-6-yl)oxy)methyl)pyrrolidin-1-yl)pyrimidin-4-yl)amino)-1-methyl-2-oxo-1,2-dihydroquinolin-3-yl)oxy)-N-methylacetamide] | ++ (50% < Ymin ≤ 70%) |
| CNC(=O)COc1cc2cc(Nc3nc(N4CCC(CN5CCN(C(=O)c6cccc(C7CCC(=O)NC7=O)c6)CC5)CC4)ncc3Cl)ccc2n(C)c1=O (stereo not drawn) [Compound 314, 2-((6-((5-chloro-2-(4-((4-(3-(2,6-dioxopiperidin-3-yl)benzoyl)piperazin-1-yl)methyl)piperidin-1-yl)pyrimidin-4-yl)amino)-1-methyl-2-oxo-1,2-dihydroquinolin-3-yl)oxy)-N-methylacetamide] | ++ (50% < Ymin ≤ 70%) |
| CNC(=O)COc1cc2cc(Nc3nc(NCc4ccc(CNc5ccc6c(C7CCC(=O)NC7=O)nn(C)c6c5)cc4)ncc3Cl)ccc2n(C)c1=O (stereo not drawn) [Compound 315, 2-((6-((5-chloro-2-((4-(((3-(2,6-dioxopiperidin-3-yl)-1-methyl-1H-indazol-6-yl)amino)methyl)benzyl)amino)pyrimidin-4-yl)amino)-1-methyl-2-oxo-1,2-dihydroquinolin-3-yl)oxy)-N-methylacetamide] | ++ (50% < Ymin ≤ 70%) |
| CNC(=O)COc1cc2cc(Nc3nc(N4CCC(OC5CCN(c6cccc7c(C8CCC(=O)NC8=O)nn(C)c67)CC5)CC4)ncc3Cl)ccc2n(C)c1=O (stereo not drawn) [Compound 316, 2-((6-((5-chloro-2-(4-((1-(3-(2,6-dioxopiperidin-3-yl)-1-methyl-1H-indazol-7-yl)piperidin-4-yl)oxy)piperidin-1-yl)pyrimidin-4-yl)amino)-1-methyl-2-oxo-1,2-dihydroquinolin-3-yl)oxy)-N-methylacetamide] | ++++ (Ymin ≤ 25%) |
| CNC(=O)COc1cc2cc(Nc3nc(N4CCO[C@H](COc5ccc6c(C7CCC(=O)NC7=O)nn(C)c6c5)C4)ncc3Cl)ccc2n(C)c1=O (stereo partly drawn) [Compound 317a, 2-((6-((5-chloro-2-((2S)-2-(((3-(2,6-dioxopiperidin-3-yl)-1-methyl-1H-indazol-6-yl)oxy)methyl)morpholino)pyrimidin-4-yl)amino)-1-methyl-2-oxo-1,2-dihydroquinolin-3-yl)oxy)-N-methylacetamide] | +++ (25% < Ymin ≤ 50%) |
| CNC(=O)COc1cc2cc(Nc3nc(NCc4ccc(CNc5cccc6c(C7CCC(=O)NC7=O)nn(C)c56)cc4)ncc3Cl)ccc2n(C)c1=O (stereo not drawn) [Compound 318, 2-((6-((5-chloro-2-((4-(((3-(2,6-dioxopiperidin-3-yl)-1-methyl-1H-indazol-7-yl)amino)methyl)benzyl)amino)pyrimidin-4-yl)amino)-1-methyl-2-oxo-1,2-dihydroquinolin-3-yl)oxy)-N-methylacetamide] | ++ (50% < Ymin ≤ 70%) |
| CNC(=O)COc1cc2cc(Nc3nc(N4CCC(CCCCOc5ccc6c(C7CCC(=O)NC7=O)nn(C)c6c5)CC4)ncc3Cl)ccc2n(C)c1=O (stereo not drawn) [Compound 319, 2-((6-((5-chloro-2-(4-(4-((3-(2,6-dioxopiperidin-3-yl)-1-methyl-1H-indazol-6-yl)oxy)butyl)piperidin-1-yl)pyrimidin-4-yl)amino)-1-methyl-2-oxo-1,2-dihydroquinolin-3-yl)oxy)-N-methylacetamide] | ++ (50% < Ymin ≤ 70%) |
| CNC(=O)COc1cc2cc(Nc3nc(N4CCC(CC5CCN(c6cccc7c(C8CCC(=O)NC8=O)nn(C)c67)C5)CC4)ncc3Cl)ccc2n(C)c1=O (stereo not drawn) [Compound 320, 2-((6-((5-chloro-2-(4-((1-(3-(2,6-dioxopiperidin-3-yl)-1-methyl-1H-indazol-7-yl)pyrrolidin-3-yl)methyl)piperidin-1-yl)pyrimidin-4-yl)amino)-1-methyl-2-oxo-1,2-dihydroquinolin-3-yl)oxy)-N-methylacetamide] | +++ (25% < Ymin ≤ 50%) |
| CNC(=O)COc1cc2cc(Nc3nc(N4CCN(CC5CCN(C(=O)c6ccc7c(C8CCC(=O)NC8=O)nn(C)c7c6)CC5)CC4)ncc3Cl)ccc2n(C)c1=O (stereo not drawn) [Compound 321, 2-((6-((5-chloro-2-(4-((1-(3-(2,6-dioxopiperidin-3-yl)-1-methyl-1H-indazole-6-carbonyl)piperidin-4-yl)methyl)piperazin-1-yl)pyrimidin-4-yl)amino)-1-methyl-2-oxo-1,2-dihydroquinolin-3-yl)oxy)-N-methylacetamide] | +++ (25% < Ymin ≤ 50%) |
